Results: PubChem BioAssay AID330 (DTP/NCI, 2004)
Where “and” joins values, the source holds several entries; their conditions need not be identical. Identical values can stand only once. Toxic doses and inconclusive results are not listed. Rule for the calls: active = survival T/C of 150% or more; inactive = T/C below 125% in these data. Peptide text beside a SMILES is read from it.

Test system: P388 leukemia ip, CD2F1 mice, survival T/C
Assay: NCI In Vivo Anticancer Drug Screen. Data for tumor model P388 Leukemia (intraperitoneal) in CD2F1 (CDF1) mice
Conditions: endpoint: median survival time, higher = longer survival
Procedure, shortened: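 Mice carrying the transplanted tumor received test compound or vehicle. Survival was recorded in each group, and the value is the treated-group measurement divided by that of the vehicle-treated control group.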

[1] = dose: 25.0 mg/kg/injection, schedule: Q01DX005 (ip), vehicle: saline
[2] = dose: 50.0 mg/kg/injection, schedule: Q01DX005 (ip), vehicle: saline
[3] = dose: 100.0 mg/kg/injection, schedule: Q01DX005 (ip), vehicle: saline
[4] = dose: 50.0 mg/kg/injection, schedule: Q01DX005 (ip), vehicle: Klucel (hydroxypropylcellulose) (HPC)
[5] = dose: 100.0 mg/kg/injection, schedule: Q01DX005 (ip), vehicle: Klucel (hydroxypropylcellulose) (HPC)
[6] = dose: 200.0 mg/kg/injection, schedule: Q01DX005 (ip), vehicle: Klucel (hydroxypropylcellulose) (HPC)
[7] = dose: 6.25 mg/kg/injection, schedule: Q01DX005 (ip), vehicle: saline with Tween-80
[8] = dose: 12.5 mg/kg/injection, schedule: Q01DX005 (ip), vehicle: saline with Tween-80
[9] = dose: 60.0 mg/kg/injection, schedule: Q01DX005 (ip), vehicle: saline with Tween-80
[10] = dose: 120.0 mg/kg/injection, schedule: Q01DX005 (ip), vehicle: saline with Tween-80
[11] = dose: 100.0 mg/kg/injection, schedule: Q01DX001 (ip), vehicle: saline with Tween-80
[12] = dose: 200.0 mg/kg/injection, schedule: Q01DX001 (ip), vehicle: saline with Tween-80
[13] = dose: 50.0 mg/kg/injection, schedule: Q01DX009 (ip), vehicle: saline with Tween-80
[14] = dose: 100.0 mg/kg/injection, schedule: Q01DX009 (ip), vehicle: saline with Tween-80
[15] = dose: 200.0 mg/kg/injection, schedule: Q01DX009 (ip), vehicle: saline with Tween-80
[16] = dose: 200.0 mg/kg/injection, schedule: Q01DX005 (ip), vehicle: saline
[17] = dose: 25.0 mg/kg/injection, schedule: Q01DX005 (ip), vehicle: saline with Tween-80
[18] = dose: 50.0 mg/kg/injection, schedule: Q01DX005 (ip), vehicle: saline with Tween-80
[19] = dose: 100.0 mg/kg/injection, schedule: Q01DX005 (ip), vehicle: saline with Tween-80
[20] = dose: 200.0 mg/kg/injection, schedule: Q01DX005 (ip), vehicle: saline with Tween-80
[21] = dose: 12.5 mg/kg/injection, schedule: Q01DX005 (ip), vehicle: saline
[22] = dose: 50.0 mg/kg/injection, schedule: Q01DX009 (ip), vehicle: saline
[23] = dose: 60.0 mg/kg/injection, schedule: Q01DX005 (ip), vehicle: Klucel (hydroxypropylcellulose) (HPC)
[24] = dose: 120.0 mg/kg/injection, schedule: Q01DX005 (ip), vehicle: Klucel (hydroxypropylcellulose) (HPC)
[25] = dose: 100.0 mg/kg/injection, schedule: Q01DX009 (ip), vehicle: saline
[26] = dose: 200.0 mg/kg/injection, schedule: Q01DX009 (ip), vehicle: saline

Measured: T/C

CCOC(=O)c1cn(C)c2c1C(=O)C(C(=O)OCC)CC(=O)N2 (stereo unspecified)
inactive: dose: 50.0 mg/kg/injection, schedule: Q01DX005 (ip), vehicle: saline + Tween-80 + alcohol 94 % of control | dose: 100.0 mg/kg/injection, schedule: Q01DX005 (ip), vehicle: saline + Tween-80 + alcohol 99 % of control | dose: 200.0 mg/kg/injection, schedule: Q01DX005 (ip), vehicle: saline + Tween-80 + alcohol 101 % of control

CC1(C)NC(=O)[C@]2(C[C@@H](O)C=C2CO)O1
inactive: [1] 94 % of control | [2] 99 % of control | [3] 93 % of control

CCn1c(C)nc2ncn(-c3ccccc3)c2c1=O
inactive: [4] 100 % of control | [5] 100 % of control | [6] 98 % of control

Cn1cccc1/C=N/N1CC(=O)N(c2cccc(C(F)(F)F)c2)CC1=O
inactive: [7] 98 % of control | [8] 100 % of control

Nc1nc(-c2ccccn2)cc2cc(Cl)ccc12
inactive: [9] 99 % of control | [10] 115 % of control

COc1cc(/C(C)=N/N=C(\C)c2ccc(O)c(OC)c2)ccc1O
inactive: [11] 100 % of control | [12] 95 % of control | dose: 400.0 mg/kg/injection, schedule: Q01DX001 (ip), vehicle: saline with Tween-80 100 % of control

O=C(O)/C(=C\c1ccccn1)c1ccccc1
inactive: dose: 100.0 mg/kg/injection, schedule: Q04DX002 (ip), vehicle: saline with Tween-80 105 % of control | dose: 200.0 mg/kg/injection, schedule: Q04DX002 (ip), vehicle: saline with Tween-80 105 % of control | dose: 400.0 mg/kg/injection, schedule: Q04DX002 (ip), vehicle: saline with Tween-80 105 % of control

COc1ccc(CCNC(=O)Cc2ccc3cc(OC)c(OC)cc3c2)cc1OC
inactive: [13] 120 % of control | [14] 100 % of control | [15] 90 % of control

CSCC1COC(=O)N1 (stereo unspecified)
inactive: dose: 100.0 mg/kg/injection, schedule: Q04DX002 (ip), vehicle: distilled water + alcohol 100 % of control | dose: 200.0 mg/kg/injection, schedule: Q04DX002 (ip), vehicle: distilled water + alcohol 106 % of control | dose: 400.0 mg/kg/injection, schedule: Q04DX002 (ip), vehicle: distilled water + alcohol 100 % of control

c1ccc(-c2ncc[nH]2)cc1
inactive: [11] 98 % of control | [12] 97 % of control

Cc1c(C)[n+](=O)c2ccccc2n1[O-]
inactive: [2] 103 % of control | [3] 108 % of control | [16] 100 % of control

C/C(=N\NC(=S)Nc1ccc(C(=O)O)cc1)c1ccccn1
inactive: [8] 110 % of control | [17] 112 % of control | [18] 109 % of control and 114 % of control

COc1ccc(CN2CC(=O)N3Cc4ccccc4CN3C(=O)C2)cc1
inactive: [18] 103 % of control | [19] 103 % of control | [20] 103 % of control

COc1cc(NCCCCCCNC(C)C)c2ncccc2c1
inactive: [7] 100 % of control | [8] 102 % of control | [17] 95 % of control

Cc1ccc2c(c1)C(=O)C(CN1CCOCC1)CCO2 (stereo unspecified)
inactive: dose: 100.0 mg/kg/injection, schedule: Q04DX003 (ip), vehicle: saline 100 % of control | dose: 200.0 mg/kg/injection, schedule: Q04DX003 (ip), vehicle: saline 102 % of control | dose: 400.0 mg/kg/injection, schedule: Q04DX003 (ip), vehicle: saline 96 % of control

O=c1c(Cc2c(-c3ccccc3)[nH]c3ccccc23)coc2ccccc12
inactive: [9] 90 % of control | [10] 89 % of control

CCO/C=C1\SC(=S)N(c2ccccc2OC)C1=O
inactive: dose: 88.0 mg/kg/injection, schedule: Q01DX009 (ip), vehicle: saline with Tween-80 118 % of control | dose: 100.0 mg/kg/injection, schedule: Q04DX003 (ip), vehicle: saline with Tween-80 104 % of control | dose: 132.0 mg/kg/injection, schedule: Q01DX009 (ip), vehicle: saline with Tween-80 119 % of control | dose: 178.0 mg/kg/injection, schedule: Q04DX003 (ip), vehicle: saline with Tween-80 118 % of control | [15] 112 % of control | dose: 200.0 mg/kg/injection, schedule: Q04DX003 (ip), vehicle: saline with Tween-80 109 % of control | dose: 266.0 mg/kg/injection, schedule: Q04DX003 (ip), vehicle: saline with Tween-80 118 % of control | dose: 400.0 mg/kg/injection, schedule: Q04DX003 (ip), vehicle: saline with Tween-80 122 % of control

COc1cc(NCCCC2CCCCN2)c2ncccc2c1OC (stereo unspecified)
inactive: dose: 6.25 mg/kg/injection, schedule: Q01DX005 (ip), vehicle: saline 103 % of control | [21] 101 % of control

C/C(=C\C(=O)c1ccccc1)Nc1ccccc1Cl
inactive: dose: 12.5 mg/kg/injection, schedule: Q01DX009 (ip), vehicle: saline 100 % of control | dose: 25.0 mg/kg/injection, schedule: Q01DX009 (ip), vehicle: saline 102 % of control | [22] 89 % of control

C/C(=C1\N=C(c2ccccc2)OC1=O)c1ccccc1
inactive: [18] 96 % of control | [19] 92 % of control | [20] 95 % of control

CCN1CCC(O)(/C=C/c2ccccc2)C(C(=O)/C=C/c2ccccc2)C1 (stereo unspecified)
inactive: [23] 108 % of control | [24] 111 % of control

CCC(C)C(N)C(=O)NC(Cc1ccc(O)cc1)C(=O)O (stereo not drawn) (H-Ile-Tyr-OH; configuration not given here)
inactive: [23] 97 % of control | [24] 96 % of control | dose: 240.0 mg/kg/injection, schedule: Q01DX005 (ip), vehicle: Klucel (hydroxypropylcellulose) (HPC) 99 % of control

CCCCN(Cc1c(O)ccc2ccccc12)Cc1c(O)ccc2ccccc12
inactive: [4] 95 % of control | [5] 97 % of control | [6] 94 % of control

C1CC[N-]CC1.CC(=N\O)/C(C)=N/O.CC(=N\O)/C(C)=N/O.N#C[CH-]CC#N.[Co+2]
inactive: dose: 12.5 mg/kg/injection, schedule: Q01DX009 (ip), vehicle: saline with Tween-80 91 % of control | dose: 25.0 mg/kg/injection, schedule: Q01DX009 (ip), vehicle: saline with Tween-80 96 % of control | [13] 97 % of control | [14] 92 % of control

N#Cc1c(N)[nH]c2ccc(Sc3ccccc3)cc12
inactive: dose: 7.5 mg/kg/injection, schedule: Q01DX005 (ip), vehicle: saline with Tween-80 97 % of control | dose: 15.0 mg/kg/injection, schedule: Q01DX005 (ip), vehicle: saline with Tween-80 99 % of control | dose: 30.0 mg/kg/injection, schedule: Q01DX005 (ip), vehicle: saline with Tween-80 104 % of control

O=[N+]([O-])c1cccnc1Sc1nc2ccccc2[nH]1
inactive: [22] 96 % of control | [25] 101 % of control | [26] 101 % of control

Cc1ccc(N)c(O)c1
inactive: [25] 102 % of control and 105 % of control | [26] 100 % of control and 103 % of control | dose: 400.0 mg/kg/injection, schedule: Q01DX009 (ip), vehicle: saline 101 % of control and 113 % of control | dose: 600.0 mg/kg/injection, schedule: Q01DX009 (ip), vehicle: saline 115 % of control

OC1CC2c3ccccc3C1c1cccc[n+]12 (stereo unspecified)
inactive: [21] 106 % of control | [1] 108 % of control | [2] 103 % of control and 106 % of control

CCOC=C=CCOCC
inactive: dose: 60.0 mg/kg/injection, schedule: Q01DX005 (ip), vehicle: saline 100 % of control | dose: 120.0 mg/kg/injection, schedule: Q01DX005 (ip), vehicle: saline 96 % of control | dose: 240.0 mg/kg/injection, schedule: Q01DX005 (ip), vehicle: saline 96 % of control

C=C(C)C1CCC2(C1)C(C)=CCCC2C (stereo unspecified)
inactive: [21] 107 % of control | [1] 99 % of control | [2] 108 % of control | [3] 100 % of control | [16] 99 % of control

CC(=O)Oc1ccc2c3c1CCCN3CCC2
inactive: [9] 108 % of control | [10] 101 % of control | dose: 240.0 mg/kg/injection, schedule: Q01DX005 (ip), vehicle: saline with Tween-80 102 % of control
